Experimental data from patent publication US20170071975A1, “COMPOSITIONS AND METHODS FOR TREATING DEPRESSIVE DISORDERS” (Steerwasher, LLC, priority 2014, published 2017).

Tests used:
[1] = test system: patients with treatment-resistant depression; design: species or system human; conditions: in vivo
Protocol: (§1) The gas mix was administered via a standard anesthesia facemask through tubing connected to an anesthesia machine. A small sample connector line was inserted into the facemask allowing the measurement of inhaled and exhaled gas concentrations. Total gas flow was between 4-8 L/min. Patients were monitored during and after the treatment according to American Society of Anesthesiologists standard which includes continuous 3-lead ECG, pulsoximetry, non-invasive blood pressure and end-tidal CO2 under the supervision of an attending-level anesthesiologists. After the one-hour treatment session, patients were transferred and monitored for 2 hours. A study team physician determined if the patients met criteria for discharge before patients were discharged.
(§2) Outcomes were assessed at six time points for each patient (three per session; two sessions): within each session at baseline, 2 hours, and 24 hours after treatment. Primary study endpoint was the change on the 21-point Hamilton Depression Rating Scale (HDRS). Secondary endpoints included a change on the Quick Inventory of Depressive Symptoms Self Report (QIDS-SR) scale. At baseline, the Brief Psychiatric Rating Scale (BPRS) was also administered. Psychiatric safety endpoints were assessed via standard scales for psychosis and the Columbia suicide scale. Other safety endpoints included cardiovascular, respiratory and central nervous system adverse events determined by hemodynamic and respiratory monitoring. Nitrous oxide-induced inactivation of vitamin B12 was determined by measurement of plasma total homocysteine before and after treatment.

[2] = test system: patients with treatment-resistant depression; experiment: Same crossover trial; Quick Inventory of Depressive Symptoms Self Report (QIDS-SR) scale; format: in vivo, human; conditions: Table 4
Protocol: (§3) Primary endpoint was the change on the 21-point Hamilton Depression Rating Scale (HRDS).
(§4) This study was designed as a randomized, placebo-controlled crossover pilot clinical trial. […] The order of the session was randomly assigned by a random number generator. Other than the gas mixture administered, both sessions were indistinguishable from each other in setting, setup, and monitoring.
as §1
as §2, with “monitoring.” for “monitoring. Nitrous oxide-induced inactivation of vitamin B12 was determined by measurement of plasma total homocysteine before and after treatment.”

[3] = test system: patients with treatment-resistant depression; experiment: Blinded, randomized placebo-controlled crossover trial; 21-point Hamilton Depression Rating Scale (HDRS/HRDS); format: in vivo, human
Excerpt: as §3, §4
Patients were recruited from an existing database of treatment-resistant depression patients administered by the Washington University Department of Psychiatry as well as from the “Volunteers for Health” patient pool within the Washington University School of Medicine. […] Patients were instructed not to suspend their standard of care treatment for major depression. Patients were required to maintain a stable medication regiment without changes for 4 weeks prior to initiation of the study and continue on the same dose throughout.
as §1
as §2, with “monitoring.” for “monitoring. Nitrous oxide-induced inactivation of vitamin B12 was determined by measurement of plasma total homocysteine before and after treatment.”
The primary outcome was analyzed with a mixed effects repeated measures linear model that included three interactions (treatment; time; randomization group) using restricted maximum likelihood estimation.
For the analysis of paired data, such as the levels of HRDS, we used the Wilcoxon signed-rank test. To compare the rates of treatment responses and remissions between the two treatments and using the paired data structure, an exact binomial test was used (and corresponding odds ratios calculated) as the number of discordant pairs was <20. Data are presented as mean±SD or 95% confidence intervals, or as median and interquartile range. Because this is the first in-human patient pilot study, no prior knowledge existed for adequate sample size determination. […] JMP Pro 11.1 and SAS 9.3 (SAS Institute, Cary, N.C.), as well as Prism 6.04 (GraphPad Software, Inc., La Jolla, Calif.) were used for the statistical analysis and graphing.

[4] = 24 hours after treatment, HRDS levels

`[N-]=[N+]=O` [nitrous oxide] was tested, and the “Adverse Event: Anxiety” value ([1]; human, 1 h) was 2, the “Adverse Event: Anxiety (percent)” value ([1]; human, 1 h) was “(10%)” and the “Adverse Event: Claustrophobia” value ([1]; human, 1 h) was 1 no. For the same compound, the “Adverse Event: Claustrophobia (percent)” value ([1]; human, 1 h) was “(5%)”, the “Adverse Event: Dizziness/Lightheadedness” value ([1]; human, 1 h) was 1 no and the “Adverse Event: Dizziness/Lightheadedness (percent)” value ([1]; human, 1 h) was “(5%)”. For the same compound, the “Adverse Event: Headache” value ([1]; human, 1 h) was 2 no, the “Adverse Event: Headache (percent)” value ([1]; human, 1 h) was “(10%)” and the “Adverse Event: Hypercapnia” value ([1]; human, 1 h) was 0. The “Adverse Event: Hyperventilation” value ([1]; human, 1 h) was 1 no, the “Adverse Event: Hyperventilation (percent)” value ([1]; human, 1 h) was “(5%)” and the “Adverse Event: Nausea and vomiting” value ([1]; human, 1 h) was 3 no. For the same compound, the “Adverse Event: Nausea and vomiting (percent)” value ([1]; human, 1 h) was “(15%)”, the “Adverse Event: Numbness/Paresthesia” value ([1]; human, 1 h) was 2 and the “Adverse Event: Numbness/Paresthesia (percent)” value ([1]; human, 1 h) was “(10%)”. For the same compound, the “Adverse Event: Panic Attack” value ([1]; human, 1 h) was 1, the “Adverse Event: Panic Attack (percent)” value ([1]; human, 1 h) was “(5%)” and the “Adverse Event: Regurgitation” value ([1]; human, 1 h) was 1 no. The “Adverse Event: Regurgitation (percent)” value ([1]; human, 1 h) was “(5%)”, the “course of adverse events” value [1] was “temporary and resolved shortly after completion” and the “patients in whom the treatment had to be interrupted or discontinued due to adverse events” value [1] was “five”. For the same compound, the “patients who completed the full 60-minute treatment” value [1] was “Fifteen”, the “psychotomimetic side effects (delusion, hallucination)” value [1] was “appeared to be devoid of psychotomimetic side effects” and the “response on the QIDS scale: change 0 (percent)” value [2] was 50%. The “response on the QIDS scale: change of 1 level, first arrow (P00003, presumably worse) (percent)” value [2] was 10%, the “response on the QIDS scale: change of 1 level, second arrow (P00004, presumably better) (percent)” value [2] was 15% and the “response on the QIDS scale: change of 2 levels, second arrow (P00004, presumably better) (percent)” value [2] was 25%. For the same compound, the “Change in Level of Depression Severity: Better, 1 level (patients)” value [3, 4] was 7/20, the “Change in Level of Depression Severity: Better, 1 level (percent)” value [3, 4] was “(35%)” and the “Change in Level of Depression Severity: Better, 2 levels (patients)” value [3, 4] was 3/20. The “Change in Level of Depression Severity: Better, 2 levels (percent)” value [3, 4] was “(15%)”, the “Change in Level of Depression Severity: Better, 3 levels (patients)” value [3, 4] was 3/20 and the “Change in Level of Depression Severity: Better, 3 levels (percent)” value [3, 4] was “(15%)”. The “Change in Level of Depression Severity: Better, 4 levels (patients)” value [3, 4] was 1/20, the “Change in Level of Depression Severity: Better, 4 levels (percent)” value [3, 4] was “(5%)” and the “Change in Level of Depression Severity: Neutral, 0 (patients)” value [3, 4] was 6/20. For the same compound, the “Change in Level of Depression Severity: Neutral, 0 (percent)” value [3, 4] was “(30%)”, the “Change in Level of Depression Severity: Worse, 1 level (patients)” value [3, 4] was 0 and the “mean change in HDRS score” value ([3]; 24 hours after treatment, full cohort (20 patients), 50% nitrous oxide/50% oxygen for 1 hour, compared to baseline and placebo) was −5.5 points. For the same compound, the “full remission rate (HRDS <7 points)” value ([3]; 24 hours, 20 patients) was 15%, the “treatment response rate (reduction >50% on the HRDS)” value ([3]; 24 hours, 20 patients) was 20% and the “mean reduction of HRDS” value ([3]; 24 hours, first treatment session only (10 patients who received nitrous oxide first)) was −8.6 points. The “patients with at least a 2-level improvement of depression severity on the HRDS” value ([3]; 24 hours, out of twenty patients, five severity levels) was 7 patients, the “patients with at least a 2-level improvement of depression severity on the HRDS, percent” value ([3]; 24 hours, twenty patients) was 35% and the “duration of antidepressant effects” value ([3]; after a single, one-hour treatment with 50% nitrous oxide) was “at least 24 hours”. For the same compound, the “mean reduction in depressive symptoms on HRDS” value ([3]; full cohort) was 5.5 points and the “mean reduction in depressive symptoms on HRDS” value ([3]; ten patients who received the nitrous oxide treatment first) was 8.6 points.
